# Values joined by “and” are separate entries in the source; they are usually repeats but may differ in a detail not shown here. Identical values can stand only once. Like-named read-outs stand apart in the source and are kept apart here. Numbered stars: 1 amine (or outer) side, 2 acyl side, 3 side chain; on linkers, the order of the positions; unused ones are H or OH. Bridge positions count the residues as written; N and C are the ends. Square brackets hold non-standard residues; d marks the D form. Peptide text beside a SMILES is read from it. * marks the point of attachment. hTyr(3S-OH,4S-OH,3'-OSO3H) = N[C@H](C(=O)O)[C@H](O)[C@@H](O)c1ccc(O)c(OS(=O)(=O)O)c1; Orn(4R-OH,5R-OH) = O=C([C@H](C[C@@H](O)[C@@H](O)N[*:3])N[*:1])[*:2]; Pro(3S-OH,4S-Me) = C[C@H]1CN[C@H](C(=O)O)[C@H]1O; X1 = CCCCCOc1ccc(-c2cc(-c3ccc(C(=O)*)cc3)no2)cc1; Gln(3R-OH) = NC(=O)C[C@@H](O)[C@H](N)C(=O)O; X2 = CC(C)CCCCCCCCC[C@H](CC(=O)[*:1])O[*:2]; Hyp = O=C(O)[C@@H]1C[C@@H](O)CN1
# Tests used:
# [1] = target: T1, SARS-CoV-2 N protein-RNA1 interaction (Severe acute respiratory syndrome coronavirus 2, UniProt P0DTC9); experiment: biochemical; format: binding; details: for loss in IC50 values in comparison to CA: single carboxylate at C1 versus CA
# T1 construct: made in house; host or cells: Escherichia coli BL21 (DE3)
# multiple human viruses = details: cited from earlier work
# [2] = target: T2, SARS-CoV-2 N protein (full-length) (Severe acute respiratory syndrome coronavirus 2, UniProt P0DTC9); experiment: DLS aggregation assay of N protein; details: compound 20 µM, two-fold molar excess
# T2 construct: made in house; host or cells: Escherichia coli BL21 (DE3)
# Method: Aggregation assays were performed with the full-length N protein diluted to 10 µM in 50 mM sodium phosphate buffer, 100 mM NaCl (pH, 7.6), with subsequent addition of 20 µM of each test compounds or 1% DMSO used as diluent. […] Samples were evaluated by DLS in a ZetaSizer NanoS (Malvern) equipment, at 10 °C, using default parameters set by the equipment.
# N protein-RNA1 complex = target: T3, N protein-RNA1 complex (Severe acute respiratory syndrome coronavirus 2, UniProt P0DTC9); format: binding, SARS-CoV-2; details: protein:compound 1:2 ratio
# T3 construct: made in house; host or cells: Escherichia coli BL21 (DE3)
# SARS-CoV-2 [3] = details: cited from earlier work
# SARS-CoV-2 [4] = experiment: SARS-CoV-2 replication assay in Vero CCL81 cells (plaque assay); format: cell-based
# SARS-CoV-2 particles = experiment: Virucidal assay in Vero CCL-81 cells; format: cell-based; details: particles incubated with CA 25 or 100 µM for 1 h
# SARS-CoV-2 [5] = experiment: SARS-CoV-2 replication assay in Calu-3 cells (plaque assay); format: cell-based
# [6] = target: T1, SARS-CoV-2 N protein-RNA1 interaction; experiment: Primary FP HTS at 20 µM compound; format: binding; details: compound 20 µM
# [7] = IC50 for blocking the N protein-RNA1 interaction
# [8] = read-out: IC50 for blocking the N protein-RNA1 interaction
Compound,"IC50 [1, 7]",further results
O=C(OC[C@H]1O[C@@H](OC(=O)c2cc(O)c(O)c(O)c2)[C@H](OC(=O)c2cc(O)c(O)c(O)c2)[C@@H](OC(=O)c2cc(O)c(O)c(O)c2)[C@@H]1OC(=O)c1cc(O)c(O)c(O)c1)c1cc(O)c(O)c(O)c1 [Pentagalloylglucose],11.6 µM,–
"O=C(/C=C/c1ccc(O)c(O)c1)O[C@H]1[C@H](O)C[C@](O)(C(=O)O)C[C@H]1OC(=O)/C=C/c1ccc(O)c(O)c1 [4,5-Dicaffeoylquinic acid]",–,"IC50 [1, 8]: 3 µM; loss in IC50 values in comparison to CA [1]: ~ 10 fold"
O=c1ccc2[n+]([O-])c3ccc(O)cc3oc-2c1 [Resazurin],10.5 µM,–
CC1=NN(c2ccc(C)c(C)c2)C(=O)/C1=N\Nc1cccc(-c2cccc(C(=O)O)c2)c1O [Eltrombopag],7.1 µM and 8.1 µM,–
CCCCCCO[C@@H](C)c1cccc(-c2csc(NC(=O)c3cc(Cl)c(/C=C(\C)C(=O)O)c(Cl)c3)n2)c1OC [Lusutrombopag],6 µM,–
O=C(NCc1ccc(Oc2ccccc2)cc1)c1nc(-c2cc(Br)c(O)c(Br)c2)no1 [IOWH-032],–,"IC50 [1, 8]: 7.7 µM"
COc1ccc2c(O[C@@H]3C[C@H]4C(=O)N[C@]5(C(=O)NS(=O)(=O)C6CC6)C[C@H]5/C=C\CCCCN(C)C(=O)[C@@H]4C3)cc(-c3nc(C(C)C)cs3)nc2c1C [Simeprevir],16.5 µM,–
COc1ccc2cc(-c3cc(-c4cc(Cl)cc(Cl)c4)nn3[C@@H](C)c3ccc(C(=O)NCCC(=O)O)cc3)ccc2c1 [MK 0893],14.4 µM,–
CC(C)CCCCCCCCC[C@@H]1CC(=O)N[C@@H](CCC(=O)O)C(=O)N[C@@H](CC(C)C)C(=O)N[C@H](CC(C)C)C(=O)N[C@@H](C(C)C)C(=O)N[C@@H](CC(=O)O)C(=O)N[C@H](CC(C)C)C(=O)N[C@@H](CC(C)C)C(=O)O1 [Surfactin] (EL[dL]VD[dL]L; linker N-C via X2),11.1 µM,–
"O=C(Nc1cccc2c(=O)cc(-c3nnn[nH]3)oc12)c1ccc(OCCCCc2ccccc2)cc1 [Pranlukast (hemihydrate), Pranlukast]",7.8 µM,–
CC(C)=CCOc1ccc(/C=C/C(=O)c2ccc(OCC=C(C)C)cc2OCC(=O)O)cc1 [Sofalcone],18.5 µM,–
C[C@@H](O)[C@H]1C(=O)N2C(C(=O)O)=C(S[C@@H]3CN[C@H](C(=O)Nc4cccc(C(=O)O)c4)C3)[C@H](C)[C@H]12 [Ertapenem sodium],–,"IC50 [1, 8]: 13.8 µM"
COc1cc(C(=O)O)ccc1NC(=O)[C@@H]1N[C@@H](CC(C)(C)C)[C@](C#N)(c2ccc(Cl)cc2F)[C@H]1c1cccc(Cl)c1F [Idasanutlin],6.5 µM,–
CCCCCCCC/C=C\CCCCCCCC(=O)O [Oleic acid],15.7 µM,–
O=C1OC[C@H]2OC(O)[C@H](O)[C@@H](O)[C@@H]2OC(=O)c2cc(O)c(O)c(O)c2-c2c(O)c(O)c3oc(=O)c4c(c(O)c(O)c5oc(=O)c2c3c54)-c2c1cc(O)c(O)c2O (mixture of isomers) [Punicalin],0.7 µM,in vitro antiviral potencies (multiple human viruses): low micromolar range
"O=C(/C=C/c1ccc(O)c(O)c1)O[C@@H]1CC(O)(C(=O)O)C[C@@H](OC(=O)/C=C/c2ccc(O)c(O)c2)C1O (some centres unmarked) [Isochlorogenic acid A, 3,5-dicaffeoylquinic acid]",–,"IC50 [1, 8]: 5.5 µM; loss in IC50 values in comparison to CA [1]: ~ 10 fold"
O=C(O)c1cc(O)c(O)c(O)c1 [Gallic acid],23.3 µM,–
O=C1O[C@H]2[C@@H]3OC(=O)c4cc(O)c(O)c(O)c4-c4c(O)c(O)c5oc(=O)c6c(c(O)c(O)c7oc(=O)c4c5c76)-c4c(cc(O)c(O)c4O)C(=O)OC[C@H]3OC(O)[C@@H]2OC(=O)c2cc(O)c(O)c(O)c2-c2c1cc(O)c(O)c2O (mixture of isomers) [Punicalagin],0.7 µM,effect on hydrodynamic radius (Rh) / oligomeric state of the N protein (DLS) [2]: appears to cause N protein aggregation; binding affinity of the N protein to RNA1 in the presence of compound (N protein-RNA1 complex): significantly reduced; in vitro antiviral potencies (multiple human viruses): low micromolar range
O=C(O[C@@H]1O[C@@H]2COC(=O)c3cc(O)c(O)c(O)c3-c3c(cc(O)c(O)c3O)C(=O)O[C@H]([C@H]1O)[C@@H]2O)c1cc(O)c(O)c(O)c1 [Corilagin],2.4 µM,–
CN(Cc1ccc(C(C)(C)C)cc1)Cc1cccc2ccccc12 [Butenafine],15.7 µM,–
COc1ccc2c(c1)C=C1Cn3c-2c(C2CCCCC2)c2ccc(cc23)C(=O)NS(=O)(=O)N(C)CCOCCN(C)C1=O [TMC647055],10 µM,–

Compound,"IC50 [1, 7]",further results
Oc1c(Cl)cc(Cl)cc1Sc1cc(Cl)cc(Cl)c1O [Bithionol],23 µM,–
Tannic acid,–,"IC50 [1, 8]: 1.4 µM"
Cc1ccc(C(=O)Nc2ccc(S(=O)(=O)O)c3cc(S(=O)(=O)O)cc(S(=O)(=O)O)c23)cc1NC(=O)c1cccc(NC(=O)Nc2cccc(C(=O)Nc3cc(C(=O)Nc4ccc(S(=O)(=O)O)c5cc(S(=O)(=O)O)cc(S(=O)(=O)O)c45)ccc3C)c2)c1 [Suramin],0.8 µM,concentration reported to inhibit SARS-CoV-2 infection in cell culture (SARS-CoV-2 [3]): 20 µM
CC(C)(Sc1cc(C(C)(C)C)c(O)c(C(C)(C)C)c1)Sc1cc(C(C)(C)C)c(OC(=O)CCC(=O)O)c(C(C)(C)C)c1 [Succinobucol],8.1 µM,–
Cc1cc2c(C(C)C)c(O)c(O)c(C=O)c2c(O)c1-c1c(C)cc2c(C(C)C)c(O)c(O)c(C=O)c2c1O [(R)-(-)-Gossypol acetic acid],–,"IC50 [1, 8]: 6.4 µM"
O=C(O)C[C@@H]1C(=O)O[C@H]2[C@H](OC(=O)c3cc(O)c(O)c(O)c3)[C@@H](OC(=O)c3cc(O)c(O)c4c3[C@H]1[C@H](O)C(=O)O4)[C@H](OC(=O)c1cc(O)c(O)c(O)c1)O[C@@H]2COC(=O)c1cc(O)c(O)c(O)c1 [Chebulinic acid],–,in vitro antiviral potencies (multiple human viruses): low micromolar range
CCCCCCCCCCCC1=C(O)C(=O)C=C(O)C1=O [Embelin],5 µM,–
"C[C@@H]1NC(=O)[C@@H]2CCCN2C(=O)[C@H](CC(N)=O)NC(=O)[C@@H]2CSSC[C@H](N)C(=O)N[C@H]3CSSC[C@H](NC1=O)C(=O)N[C@@H]([C@@H](C)O)C(=O)NCC(=O)N[C@H](C(=O)N[C@@H](Cc1ccc(O)cc1)C(=O)O)CSSC[C@H](NC(=O)[C@H](Cc1ccc(O)cc1)NC(=O)[C@H](CCC(=O)O)NC3=O)C(=O)N2 [Linaclotide] (H-CCEYCCNPACTGCY-OH; disulfide 1-6, 2-10, 5-13)",5.5 µM,–
Cc1cc(/C=C(\C#N)C(=O)Nc2cccc(Br)c2)c(C)n1-c1ccc(C(=O)O)cc1 [RNPA1000],–,"IC50 [1, 8]: 9.6 µM"
O=S(=O)(O)c1ccc(N=C2C=CC(=C(c3ccc(Nc4ccc(S(=O)(=O)O)cc4)cc3)c3ccc(Nc4ccc(S(=O)(=O)O)cc4)cc3)C=C2)cc1 [Methyl Blue],–,"IC50 [1, 8]: 4.2 µM"
"CCCCCOc1ccc(-c2cc(-c3ccc(C(=O)N[C@H]4C[C@@H](O)[C@@H](O)NC(=O)[C@@H]5[C@@H](O)[C@@H](C)CN5C(=O)[C@H]([C@H](O)CC(N)=O)NC(=O)[C@H]([C@H](O)[C@@H](O)c5ccc(O)c(OS(=O)(=O)O)c5)NC(=O)[C@@H]5C[C@@H](O)CN5C(=O)[C@H]([C@@H](C)O)NC4=O)cc3)no2)cc1 [Micafungin] (X1-[Orn(4R-OH,5R-OH)]T[Hyp][hTyr(3S-OH,4S-OH,3'-OSO3H)][Gln(3R-OH)][Pro(3S-OH,4S-Me)]; lactam 1-C)",10.4 µM,–
O=C(O)c1cc(O)c2c(c1)[C@H]([C@H]1c3cc(C(=O)O)cc(O)c3C(=O)c3c(O[C@@H]4O[C@H](CO)[C@@H](O)[C@H](O)[C@H]4O)cccc31)c1cccc(O[C@@H]3O[C@H](CO)[C@@H](O)[C@H](O)[C@H]3O)c1C2=O [Sennoside A],5.7 µM,–
Cc1ccnc(NS(=O)(=O)c2ccc(N)cc2)n1 [Sulfamerazine],6.5 µM,–
L-Chicoric acid,–,antiviral activity at 25 and 100 µM (SARS-CoV-2 [4]): antiviral activity at 100 µM only; reduction in infectious viral load (SARS-CoV-2 [4]): tenfold; virucidal activity against SARS-CoV-2 (SARS-CoV-2 particles): slight virucidal activity; antiviral activity at 25 and 100 µM (SARS-CoV-2 [5]): antiviral activity at 100 µM only; reduction in infectious viral load (SARS-CoV-2 [5]): 100 fold
O=C(/C=C/c1ccc(O)c(O)c1)O[C@H](Cc1ccc(O)c(O)c1)C(=O)O [rosmarinic acid],–,N protein-RNA1 disruption [6]: low
C[C@@H]1O[C@@H](O[C@@H]2[C@@H](O)[C@H](OCCc3ccc(O)c(O)c3)O[C@H](CO)[C@H]2OC(=O)/C=C/c2ccc(O)c(O)c2)[C@H](O)[C@H](O)[C@H]1O [verbascoside],–,N protein-RNA1 disruption [6]: low
Verteporfin,–,"IC50 [1, 8]: 10.8 µM"
COc1cc(C(=O)NS(=O)(=O)c2ccccc2C)ccc1Cc1cn(C)c2ccc(NC(=O)OC3CCCC3)cc12 [Zafirlukast],10.4 µM,–
Oc1c(Cl)cc(Cl)c(Cl)c1Cc1c(O)c(Cl)cc(Cl)c1Cl [Hexachlorophene],13 µM,–
CCCCCCCCCCCCCCCc1cccc(O)c1C(=O)O [Anacardic Acid],–,"IC50 [1, 8]: 7.7 µM"
Cc1cc2c(C(C)C)c(O)c(O)c(C=O)c2c(O)c1-c1c(C)cc2c(C(C)C)c(O)c(O)c(C=O)c2c1O [Gossypol acetic acid],7.1 µM,–

# From paper PMC9628480, “Discovery and structural characterization of chicoric acid as a SARS-CoV-2 nucleocapsid protein ligand and RNA binding disruptor” (Scientific Reports, 2022)
